Source: ChEMBL document CHEMBL3046314, “Synthesis, cytotoxicity, and molecular properties prediction of novel 1,3-diarylpyrazole derivatives” (Med Chem Res, 2013)

Experiments:
Type in all cases: functional, cell-based
MCF7 = assay: Cytotoxicity against Homo sapiens (human) MCF7 cells after 48 hr by MTT assay
HeLa = assay: Cytotoxicity against Homo sapiens (human) HeLa cells after 48 hr by MTT assay
MDA-MB-231 = assay: Cytotoxicity against Homo sapiens (human) MDA-MB-231 cells after 48 hr by MTT assay; details: MDA-MB-231, 48 h
HL-60 = assay: Cytotoxicity against Homo sapiens (human) HL60 cells after 48 hr by MTT assay
Raji = assay: Cytotoxicity against Homo sapiens (human) Raji cells after 48 hr by MTT assay
[1] = Homo sapiens, MCF7, 48 h, read-out: IC50
[2] = Homo sapiens, HL-60, 48 h, read-out: IC50
[3] = Homo sapiens, Raji, 48 h, read-out: IC50

| SMILES | IC50 (MCF7; [1]) | IC50 (HeLa) | IC50 (MDA-MB-231) | IC50 (HL-60; [2]) | IC50 (Raji; [3]) | IC50 (MCF7; mcf7) | IC50 (HL-60; hl-60) | IC50 (Raji; raji) |
| --- | --- | --- | --- | --- | --- | --- | --- | --- |
| CC(C)(C)c1ccc(OC(=O)c2cn(-c3ccccc3)nc2-c2ccncc2)cc1 | 32.2 µM | 35.4 µM | 34.5 µM | 18.7 µM | 33.3 µM |  |  |  |
| O=C(c1cn(-c2ccccc2)nc1-c1cccnc1)N1CCN(c2ccccc2)CC1 | > 100 µM | > 100 µM | > 100 µM | 24.5 µM | 32.8 µM |  |  |  |
| O=C(NCc1ccccc1)c1cn(-c2ccccc2)nc1-c1cccnc1 |  | > 100 µM | > 100 µM |  |  | ND(Insoluble) | ND(Insoluble) | ND(Insoluble) |
| Cc1ccc(C(C)C)c(OC(=O)c2cn(-c3ccccc3)nc2-c2cccnc2)c1 | 84.2 µM | > 100 µM | > 100 µM | 22.7 µM | 20.6 µM |  |  |  |
| O=C(c1cn(-c2ccccc2)nc1-c1cccnc1)N1CCOCC1 | > 100 µM | > 100 µM | > 100 µM | > 100 µM | > 100 µM |  |  |  |
| CN1CCN(C(=O)c2cn(-c3ccccc3)nc2-c2ccncc2)CC1 | > 100 µM | > 100 µM | > 100 µM | > 100 µM | > 100 µM |  |  |  |
| O=C(c1cn(-c2ccccc2)nc1-c1ccncc1)N1CCN(c2ccc(C(F)(F)F)cc2)CC1 | > 100 µM | > 100 µM | > 100 µM | > 100 µM | 9.63 µM |  |  |  |
| O=C(O)c1cn(-c2ccccc2)nc1-c1cccnc1 | > 100 µM | > 100 µM | > 100 µM | > 100 µM | > 100 µM |  |  |  |
| O=C(c1cn(-c2ccccc2)nc1-c1cccnc1)N1CCC(Cc2ccccc2)CC1 | 32.2 µM | 25.3 µM | > 100 µM | 16.1 µM | 8.12 µM |  |  |  |
| O=C(O)c1cn(-c2ccccc2)nc1-c1ccncc1 | > 100 µM | > 100 µM | > 100 µM | > 100 µM | > 100 µM |  |  |  |
| COc1ccc(OC(=O)c2cn(-c3ccccc3)nc2-c2ccncc2)cc1 | > 100 µM | > 100 µM | > 100 µM | > 100 µM | > 100 µM |  |  |  |
| O=C(c1cn(-c2ccccc2)nc1-c1cccnc1)N1CCN(c2ccncc2)CC1 | > 100 µM | > 100 µM | > 100 µM | > 100 µM | > 100 µM |  |  |  |
| CN1CCN(C(=O)c2cn(-c3ccccc3)nc2-c2cccnc2)CC1 | > 100 µM | > 100 µM | > 100 µM | > 100 µM | 75.6 µM |  |  |  |
| CC(C)(C)c1ccc(OC(=O)c2cn(-c3ccccc3)nc2-c2cccnc2)cc1 | > 100 µM | > 100 µM | > 100 µM | > 100 µM | 42.3 µM |  |  |  |
| CC(C)c1cccc(OC(=O)c2cn(-c3ccccc3)nc2-c2ccncc2)c1 |  | > 100 µM | > 100 µM |  |  | ND(Insoluble) | ND(Insoluble) | ND(Insoluble) |
| O=C(Oc1ccc2ccccc2c1)c1cn(-c2ccccc2)nc1-c1ccncc1 | 44.5 µM | > 100 µM | > 100 µM | > 100 µM | 12.1 µM |  |  |  |
| O=C(Oc1ccc(-c2ccccc2)cc1)c1cn(-c2ccccc2)nc1-c1cccnc1 |  | > 100 µM | > 100 µM |  |  | ND(Insoluble) | ND(Insoluble) | ND(Insoluble) |
| O=C(Oc1ccc(-c2ccccc2)cc1)c1cn(-c2ccccc2)nc1-c1ccncc1 |  | > 100 µM | > 100 µM |  |  | ND(Insoluble) | ND(Insoluble) | ND(Insoluble) |
| COc1ccc(OC(=O)c2cn(-c3ccccc3)nc2-c2cccnc2)cc1 | > 100 µM | > 100 µM | > 100 µM | > 100 µM | > 100 µM |  |  |  |
| O=C(c1cn(-c2ccccc2)nc1-c1ccncc1)N1CCN(c2ccccc2)CC1 | > 100 µM | > 100 µM | > 100 µM | > 100 µM | > 100 µM |  |  |  |
| O=C(c1cn(-c2ccccc2)nc1-c1ccncc1)N1CCN(c2ccncc2)CC1 | > 100 µM | > 100 µM | > 100 µM | > 100 µM | > 100 µM |  |  |  |
| O=C(NCc1ccccc1)c1cn(-c2ccccc2)nc1-c1ccncc1 | > 100 µM | > 100 µM | > 100 µM | > 100 µM | > 100 µM |  |  |  |
| Cc1ccc(C(C)C)c(OC(=O)c2cn(-c3ccccc3)nc2-c2ccncc2)c1 | > 100 µM | > 100 µM | > 100 µM | 17.8 µM | 10.6 µM |  |  |  |
| O=C(c1cn(-c2ccccc2)nc1-c1ccncc1)N1CCOCC1 | > 100 µM | > 100 µM | > 100 µM | > 100 µM | > 100 µM |  |  |  |
| CCc1ccc(OC(=O)c2cn(-c3ccccc3)nc2-c2ccncc2)cc1 |  | > 100 µM | > 100 µM |  |  | ND(Insoluble) | ND(Insoluble) | ND(Insoluble) |
| O=C(Oc1ccc2ccccc2c1)c1cn(-c2ccccc2)nc1-c1cccnc1 |  | > 100 µM | > 100 µM |  |  | ND(Insoluble) | ND(Insoluble) | ND(Insoluble) |
| CC(C)c1cccc(OC(=O)c2cn(-c3ccccc3)nc2-c2cccnc2)c1 | 75.5 µM | > 100 µM | > 100 µM | 23.7 µM | 11.6 µM |  |  |  |
| O=C(c1cn(-c2ccccc2)nc1-c1ccncc1)N1CCC(Cc2ccccc2)CC1 | 56.4 µM | 32.8 µM | > 100 µM | 16.4 µM | 21.3 µM |  |  |  |
| O=C(c1cn(-c2ccccc2)nc1-c1cccnc1)N1CCN(c2ccc(C(F)(F)F)cc2)CC1 | 75.3 µM | 28.6 µM | > 100 µM | 16.9 µM | 15.1 µM |  |  |  |
